{"source": "paper PMC11094793", "about": "“Discovery of LLC0424 as a Potent and Selective in Vivo NSD2 PROTAC Degrader” (Journal of Medicinal Chemistry, 2024)", "key": {"RPMI-8402 cells [1]": {"tested_on": "RPMI-8402 cells", "assay": "Colony formation in soft agar", "type": "cell-based, human", "settings": "2 μM, 30 days, INT staining", "description": "Colony formation in soft agar was conducted in 12-well plates, with the bottom layer containing 750 μL of 0.8% agarose in 10% FBS/cell media and the top layer containing 0.4% agarose (SEM cells or RPMI-8402 cells). LLC0424 was added every 3 days to the liquid layer on top agarose to reach a final concentration of 2 μM. At the 30 days of treatment, the cells were stained with iodonitrotetrazolium chloride (INT) by adding 500 μL 1× INT PBS solution into each well. After the staining, images were taken using brightfield microscope and plate scan was conducted using Epson Perfection V700 Photo. Colony number counting was performed using ImageJ."}, "RPMI-8402 cells [2]": {"tested_on": "RPMI-8402 cells", "assay": "Cell viability assay (CellTiter-Glo, 7 days), RPMI-8402", "type": "cell-based, human", "description": "(§1) Cells were plated in 50 μL of the corresponding media in 96-well plates. A 2-fold dilution series of 2* concentrated LLC0424 was prepared in a medium with the highest concentration being 60 μM. Then 50 μL of the 2× compound-containing mixture was added to each well with 6 replicates for each concentration, reaching 1× concentration, with the highest concentration being 30 μM. The plate was incubated for 7 days. At the end point, the CellTiter-Glo assay (Promega) was then performed according to the manufacturer’s instruction to determine cell proliferation. The luminescence signal intensity of each well was acquired on an Infinite M1000Pro microplate reader and the data was analyzed using GraphPad Prism software (GraphPad Software)."}, "SEM cells [3]": {"tested_on": "SEM cells", "assay": "Cell viability assay (CellTiter-Glo, 7 days), SEM", "type": "cell-based, human", "description": "as §1"}, "[4]": {"molecular_target": "T1, NSD2 (both long and short isoforms) (Homo sapiens, UniProt O96028)", "T1 sequence (O96028 211-350 limits assumed)": "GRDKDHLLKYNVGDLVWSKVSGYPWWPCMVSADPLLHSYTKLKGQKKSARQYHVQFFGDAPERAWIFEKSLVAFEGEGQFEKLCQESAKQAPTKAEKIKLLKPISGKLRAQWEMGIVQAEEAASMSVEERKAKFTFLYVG", "assay": "NSD2 degradation by immunoblotting in ALL cell lines RPMI-8402 and SEM (NSD2 E1099K)", "type": "cell-based", "settings": "RPMI-8402 and SEM cells; 0.5 and 2 μM for 24 h or 2 μM for 12 and 24 h", "description": "As previous studies have shown that ALL cell lines with NSD2 gain-of-function mutation are more dependent on NSD2 regarding H3K36me2 level and cell proliferation,[7],[8] we further characterized LLC0424 in ALL cell lines with NSD2 E1099K gain-of-function mutation (RPMI-8402 and SEM). We first treated these cells with LLC0424 with different concentrations for 24 h. […] In addition, we compared the degradation efficiency of LLC0424 with the two previously published NSD2 degraders 6 and 7 at different concentrations and time points.\nAfter treatment, the cultured cells were collected and rinsed with phosphate-buffered saline (PBS) in room temperature. The cells were treated with RIPA buffers (ThermoFisher Scientific) supplemented with Halt Protease and Phosphatase Inhibitor Cocktail (ThermoFisher Scientific). After sonication and centrifugation, the total amount of protein in the cell lysates was measured by Pierce Bovine Serum Albumin Standard Pre-Diluted Set (ThermoFisher Scientific). After mixed with LDS-sample buffer (Invitrogen) supplemented with Sample Reducing Agent (Invitrogen) and heated in 70 °C for 10 min, equal amount of protein was loaded into NuPAGE 4–12%, Bis-Tris Protein Gel (ThermoFisher Scientific) or NuPAGE 3–8%, Tris-Acetate Protein Gel (ThermoFisher Scientific), and blotted with primary antibodies. After incubated with HRP-conjugated secondary antibodies, the membranes were developed with ECL Prime Western Blotting Detection Reagent (cytiva) and imaged on Odyssey Fc Imager (LiCOR Biosciences)."}, "SEM cells [5]": {"tested_on": "SEM cells", "assay": "RNA-seq global transcriptome analysis", "type": "cell-based, human", "settings": "14 days of treatment, versus DMSO", "description": "NSD2 is the primary methyltransferase that transfers dimethyl to H3K36 in ALL with NSD2 gain-of-function mutation. Therefore, the effects of LLC0424 on H3K36me2 was evaluated in SEM and RPMI-8402 cells. […] Meanwhile, LLC0424 treatment also led to downregulation of H3K36Me2 in RPMI-8402 cells within 24 h (Figure 6B). […] We also conducted a colony formation assay to evaluate the effect of LLC0424 on the stem cell-like property of the leukemia cells. […] As LLC0424 leads to strong degradation of both NSD2-L and NSD2-S, the phenotypic changes upon LLC0424 treatment result from complete inactivation of NSD2 activity, including adaptor-like function of NSD2-S and SET-domain dependent enzymatic function of NSD2-L. The specific contributions of NSD2 isoforms warrant future investigation. To characterize the genes affected by LLC0424 treatment, we performed global transcriptome analysis of SEM cells treated by DMSO, LLC0424, or LLC0424N. […]\nTotal RNA was isolated from cells using the miRNeasy Mini Kit (Qiagen). […] Paired-end libraries were sequenced with the Illumina HiSeq 2500 (2 × 100 nucleotide read length) with sequence coverage to 15–20 M paired reads. […] Then we performed the analysis in R. First, EdgeR (edgeR_3.39.6) was used to perform read counts normalization and filtering (counts >10) and then Limma-Voom (limma_3.53.10) was used to analyze differential expression."}, "NSD2 [6]": {"molecular_target": "T2, NSD2 (Homo sapiens, UniProt O96028)", "T2 sequence (O96028 211-350 limits assumed)": "T1 sequence (O96028 211-350 limits assumed)", "assay": "Validation of mechanism of action: pretreatment rescue of LLC0424-mediated NSD2 degradation", "type": "cell-based", "settings": "RPMI-8402 and SEM cells; pretreated 2 h, then 2 μM LLC0424 for 12 h"}, "NSD2 [7]": {"tested_on": "NSD2", "set-up": "method as in PMID 36976643", "settings": "U2OS cells, 24 h treatment; cited from earlier work"}, "NSD2 [8]": {"molecular_target": "T3, NSD2 (Homo sapiens, UniProt O96028)", "T3 sequence (O96028 1-1365)": "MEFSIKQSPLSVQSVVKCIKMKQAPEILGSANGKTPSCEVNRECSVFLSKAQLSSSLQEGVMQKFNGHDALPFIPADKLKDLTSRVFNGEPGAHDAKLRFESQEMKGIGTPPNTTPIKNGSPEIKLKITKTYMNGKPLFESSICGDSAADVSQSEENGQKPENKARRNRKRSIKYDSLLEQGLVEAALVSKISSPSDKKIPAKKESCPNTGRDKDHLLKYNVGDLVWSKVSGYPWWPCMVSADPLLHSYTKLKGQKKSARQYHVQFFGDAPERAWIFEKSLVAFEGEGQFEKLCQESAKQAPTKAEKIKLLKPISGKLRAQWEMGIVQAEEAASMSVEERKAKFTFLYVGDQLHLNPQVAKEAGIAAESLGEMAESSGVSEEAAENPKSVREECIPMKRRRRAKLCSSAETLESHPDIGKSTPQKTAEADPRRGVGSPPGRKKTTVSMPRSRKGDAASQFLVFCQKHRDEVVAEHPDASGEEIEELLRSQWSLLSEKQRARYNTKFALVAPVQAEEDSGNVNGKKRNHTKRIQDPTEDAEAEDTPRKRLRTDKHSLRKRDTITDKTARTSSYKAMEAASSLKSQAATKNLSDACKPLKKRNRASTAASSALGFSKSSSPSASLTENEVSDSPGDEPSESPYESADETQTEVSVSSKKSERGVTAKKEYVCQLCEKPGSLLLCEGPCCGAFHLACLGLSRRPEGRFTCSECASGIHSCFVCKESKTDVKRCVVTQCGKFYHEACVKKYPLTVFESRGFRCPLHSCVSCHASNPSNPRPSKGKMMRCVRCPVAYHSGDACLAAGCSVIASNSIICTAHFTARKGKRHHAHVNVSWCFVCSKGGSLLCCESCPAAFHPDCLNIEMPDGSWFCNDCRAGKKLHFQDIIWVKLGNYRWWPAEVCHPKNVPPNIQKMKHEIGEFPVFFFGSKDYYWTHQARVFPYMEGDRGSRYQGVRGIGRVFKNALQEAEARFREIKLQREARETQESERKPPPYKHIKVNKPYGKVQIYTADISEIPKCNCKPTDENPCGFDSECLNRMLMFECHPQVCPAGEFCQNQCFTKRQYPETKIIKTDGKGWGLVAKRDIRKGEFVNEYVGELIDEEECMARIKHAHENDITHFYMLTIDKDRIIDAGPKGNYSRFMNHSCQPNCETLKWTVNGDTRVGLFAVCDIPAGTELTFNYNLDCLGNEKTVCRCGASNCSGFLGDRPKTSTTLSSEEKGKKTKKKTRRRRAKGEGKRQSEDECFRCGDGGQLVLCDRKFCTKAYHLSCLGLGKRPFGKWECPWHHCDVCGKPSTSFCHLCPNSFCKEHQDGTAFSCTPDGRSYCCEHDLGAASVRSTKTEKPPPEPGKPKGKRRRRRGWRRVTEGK", "assay": "Compound screening: NSD2 degradation by immunoblotting in VCaP cells", "settings": "24 h; for % Degradation: 2 μM, VCaP cells, immunoblotting; for Dmax at 2 µM: VCaP", "quoted_text": "After treatment, the cultured cells were collected and rinsed with phosphate-buffered saline (PBS) in room temperature. The cells were treated with RIPA buffers (ThermoFisher Scientific) supplemented with Halt Protease and Phosphatase Inhibitor Cocktail (ThermoFisher Scientific). After sonication and centrifugation, the total amount of protein in the cell lysates was measured by Pierce Bovine Serum Albumin Standard Pre-Diluted Set (ThermoFisher Scientific). […] After incubated with HRP-conjugated secondary antibodies, the membranes were developed with ECL Prime Western Blotting Detection Reagent (cytiva) and imaged on Odyssey Fc Imager (LiCOR Biosciences).\nWestern blot was then performed as previously described to detect NSD2 degradation."}}, "note": "Where two headings read alike, the source gives them in different places.", "data": [{"molecule": "CN1C(=O)CCC(N2C(=O)c3ccc(N4CCC(NC(=O)c5ccc(NC(=O)c6ccc(CN(C(=O)c7ccc8c(c7)OCC(=O)N8)C7CC7)cc6)cc5)CC4)cc3C2=O)C1=O", "note": "(centres unmarked) [LLC0424N]", "values": [{"measurement": "formation of cell colonies", "setting": "RPMI-8402 cells [1]", "value": "not"}, {"measurement": "IC50 (growth, cell viability)", "setting": "RPMI-8402 cells [2]", "value": "much less active"}, {"measurement": "IC50 (growth, cell viability)", "setting": "SEM cells [3]", "value": "much less active"}, {"measurement": "NSD2 degradation, comparison of degraders", "setting": "[4]", "value": "much less active"}, {"measurement": "differentially expressed genes (transcriptome)", "setting": "SEM cells [5]", "value": "little transcription level changes"}]}, {"molecule": "Cc1ncsc1-c1ccc(CNC(=O)[C@@H]2C[C@@H](O)CN2C(=O)[C@H](C(C)C)N2Cc3ccccc3C2=O)cc1", "note": "[VL-285]", "values": [{"measurement": "effect of pretreatment on LLC0424-mediated NSD2 degradation", "setting": "NSD2 [6]", "value": "not"}]}, {"molecule": "NCCCCCCNC(=O)c1ccc(NC(=O)c2ccc(CN(C(=O)c3ccc4c(c3)OCC(=O)N4)C3CC3)cc2)cc1", "note": "[compound 7, reference compound]", "values": [{"measurement": "NSD2 degradation, comparison of degraders", "setting": "[4]", "value": "much less active"}, {"measurement": "DC50", "setting": "NSD2 [7]", "value": 350, "unit": "nM"}, {"measurement": "Dmax", "setting": "NSD2 [7]", "value": 79, "unit": "%"}, {"measurement": "% Degradation", "setting": "NSD2 [8]", "value": 30, "unit": "%"}]}, {"molecule": "O=C(CNc1cccc2c1C(=O)N(C1CCC(=O)NC1=O)C2=O)NCCCOc1ccc(NC(=O)c2ccc(CN(C(=O)c3ccc4c(c3)OCC(=O)N4)C3CC3)cc2)nc1", "note": "(centres unmarked) [compound 6, reference compound]", "values": [{"measurement": "NSD2 degradation, comparison of degraders", "setting": "[4]", "value": "much less active"}, {"measurement": "% Degradation", "setting": "NSD2 [8]", "value": 11, "unit": "%"}]}, {"molecule": "O=C1CCC(N2C(=O)c3cccc(NCCCCCCNC(=O)c4ccc(NC(=O)c5ccc(CN(C(=O)c6ccc7c(c6)OCC(=O)N7)C6CC6)cc5)cc4)c3C2=O)C(=O)N1", "note": "(centres unmarked) [10c, N-Cyclopropyl-N-(4-((4-((6-((2-(2,6-dioxopiperidin-3-yl)-1,3-dioxoisoindolin-4-yl)amino)hexyl)carbamoyl)phenyl)carbamoyl)benzyl)-3-oxo-3,4-dihydro-2H-benzo[b][1,4]oxazine-7-carboxamide]", "values": [{"measurement": "Dmax at 2 µM", "setting": "NSD2 [8]; read-out: 2.0 μM Degradation % (VCaP)", "value": 25, "unit": "%"}, {"measurement": "Dmax at 2 µM", "setting": "NSD2 [8]; read-out: % Degradation", "value": 25, "unit": "%"}]}]}
